Measurements reported in patent publication US20240174696A1, “2,8-DIAZASPIRO[4.5]DECANE COMPOUNDS” (Genentech, Inc., priority 2021, published 2024).
Structures can show the parent of a compound that is named as a salt.

Columns and labels:
[1] = test system: TAZ nuclear translocation in SW1990 cells; assay: TAZ Nuclear Translocation Assay; type: cell-based; conditions: Homo sapiens, 4 hours
Method in brief: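 SW1990 cells in RPMI1640/10% FBS treated with compounds for 4 h at 37 °C, then fixed and immunostained for TAZ with Hoechst nuclear counterstain and imaged by high-content imaging. Read-out is the nuclear/cytoplasmic-ring fluorescence ratio, normalized to DMSO (0%) and an inhibitor control (100%); EC50 from four-parameter fit.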

[2] = test system: pYAP(Ser127) in SW1990 cells; assay: pYAP(Ser127) HTRF Cellular Assay; type: cell-based; conditions: Homo sapiens, 4 hours
Experimental: The SW1990 cells were seeded at 8000 cells/well by adding 30 μL/well of cells in RPMI1640, 10% FBS, 2 mM glutamine culture media to a 384-well plate (Corning 3570). The cells were incubated overnight at 37° C. Next day, compounds were directly added to the cells using the Echo Liquid Handler (Labcyte), incubate at 37° C. for 4 hours.
The HTRF assay was performed using the Cisbio phospho-YAP Ser127 HTRF kit (64YAPPEG). The media was aspirated from the cells. 20 μL of 1X lysis/blocking buffer was added to the cells, gently shake for 30 minutes at room temperature. 1 μL of the premixed antibody solution (1:40 dilution of each phospho-YAP Eu Cryptate antibody and phospho-YAP d2 antibody) was added to the cells. The plate was sealed and incubated overnight at room temperature. The HTRF (665 nm/620 nm) signal was read on the PHERAstar reader (BMG Labtech). The EC50 values were calculated by fitting the % inhibition with a nonlinear four-parameter logistical equation.

[3] = biological target: Human LATS2 catalytic domain (Homo sapiens (Human), UniProt Q9NRM7); assay: LATS2 High ATP HTRF Assay; type: biochemical; conditions: no asterisk: LATS2 High ATP HTRF Assay, 5000 μM ATP, 0.05 nM LATS2
Method in brief: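 Phosphorylation of 0.5 μM STK S1 peptide at high ATP (5000 μM), 2 h at room temperature, by 0.05 nM LATS2 kinase domain/Mob1b complex after 10 min compound pre-incubation. Ki derived from HTRF-based IC50 (4-parameter logistic) by Cheng-Prusoff, ATP Km 105 μM.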

Sequence of Human LATS2 catalytic domain (Q9NRM7 553-1088): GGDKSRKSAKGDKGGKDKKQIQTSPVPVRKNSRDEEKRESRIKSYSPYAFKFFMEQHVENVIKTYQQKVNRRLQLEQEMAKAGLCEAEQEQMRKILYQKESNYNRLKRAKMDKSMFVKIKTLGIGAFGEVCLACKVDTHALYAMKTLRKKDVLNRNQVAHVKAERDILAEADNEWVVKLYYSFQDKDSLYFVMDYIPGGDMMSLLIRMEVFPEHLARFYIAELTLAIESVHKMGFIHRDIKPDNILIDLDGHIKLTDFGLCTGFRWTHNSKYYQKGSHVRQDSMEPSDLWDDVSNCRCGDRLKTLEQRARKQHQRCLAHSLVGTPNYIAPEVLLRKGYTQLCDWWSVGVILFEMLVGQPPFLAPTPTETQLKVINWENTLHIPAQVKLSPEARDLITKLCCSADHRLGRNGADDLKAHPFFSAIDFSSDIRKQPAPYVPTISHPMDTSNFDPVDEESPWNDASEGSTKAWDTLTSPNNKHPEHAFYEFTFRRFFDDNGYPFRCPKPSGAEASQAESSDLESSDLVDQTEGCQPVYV
Sequence of Human LATS2 catalytic domain (Q7L9L4 whole entry partner, the tested form may be a part): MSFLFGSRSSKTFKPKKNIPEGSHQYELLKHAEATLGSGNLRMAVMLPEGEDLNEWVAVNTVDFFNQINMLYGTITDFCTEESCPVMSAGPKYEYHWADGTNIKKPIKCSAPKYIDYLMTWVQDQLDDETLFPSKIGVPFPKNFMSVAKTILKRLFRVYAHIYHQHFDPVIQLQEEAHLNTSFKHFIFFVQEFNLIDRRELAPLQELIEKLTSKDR

Structure (SMILES)	EC50 [1] [nM]	EC50 [2] [nM]	Ki [3] [nM]
c1cc(-c2nc(N3CCC4(CC3)CCN([C@@H]3CCOC3)C4)c3ccncc3n2)ccn1 (single isomer, unassigned) [Compound 112]	700	940	1.07
c1cc(-c2nc(N3CCC4(CC3)CCN([C@H]3CCOC3)C4)c3ccncc3n2)ccn1 (single isomer, unassigned) [Compound 113]	660	1100	0.82
OC[C@@H]1CC2(CCN(c3nc(-c4ccncc4)nc4cnccc34)CC2)CN1 (single isomer, unassigned) [Compound 197]	1300	1400	0.059
OC[C@H]1CC2(CCN(c3nc(-c4ccncc4)nc4cnccc34)CC2)CN1 (single isomer, unassigned) [Compound 198]	1400	2400	0.041
FC(F)(F)CN1CCC2(CCN(c3nc(-c4ccncc4)nc4cnccc34)CC2)C1 [Compound 105, 2-(pyridin-4-yl)-4-(2-(2,2,2-trifluoroethyl)-2,8-diazaspiro[4.5]decan-8-yl)pyrido[3,4-d]pyrimidine]	2300	5800	3.08
c1cc(-c2nc(N3CCC4(CC3)CCN(C3CCCC3)C4)c3ccncc3n2)ccn1 [Compound 106, 4-(2-cyclopentyl-2,8-diazaspiro[4.5]decan-8-yl)-2-(pyridin-4-yl)pyrido[3,4-d]pyrimidine formate]	300	230	0.053
CC(C)(CO)N1CCC2(CCN(c3nc(-c4ccncc4)nc4cnccc34)CC2)C1 [Compound 107, 2-methyl-2-(8-(2-(pyridin-4-yl)pyrido[3,4-d]pyrimidin-4-yl)-2,8-diazaspiro[4.5]decan-2-yl)propan-1-ol]	420	290	0.62
OC1CC(N2CCC3(CCN(c4nc(-c5ccncc5)nc5cnccc45)CC3)C2)C1 (stereo not shown) [Compound 108, 3-(8-(2-(pyridin-4-yl)pyrido[3,4-d]pyrimidin-4-yl)-2,8-diazaspiro[4.5]decan-2-yl)cyclobutanol]	380	580	0.31
CNc1cc2c(N3CCC4(CCN(C)C4)CC3)nc(-c3ccncc3)nc2cn1 [Example 214, N-methyl-4-(2-methyl-2,8-diazaspiro[4.5]decan-8-yl)-2-(pyridin-4-yl)pyrido[3,4-d]pyrimidin-6-amine]	850	–	10
CN(C)S(=O)(=O)CCN1CCC2(CCN(c3nc(-c4ccncc4)nc4cnccc34)CC2)C1 [Example 215, N,N-dimethyl-2-(8-(2-(pyridin-4-yl)pyrido[3,4-d]pyrimidin-4-yl)-2,8-diazaspiro[4.5]decan-2-yl)ethanesulfonamide]	1500	–	1.2
Cc1n[nH]cc1-c1nc(N2CCC3(CCN(CCF)C3)CC2)c2ccncc2n1 [Example 219, 4-(2-(2-fluoroethyl)-2,8-diazaspiro[4.5]decan-8-yl)-2-(3-methyl-1H-pyrazol-4-yl)pyrido[3,4-d]pyrimidine]	460	–	0.067
Cc1[nH]ncc1-c1nc(N2CCC3(CCN(CC(F)F)C3)CC2)c2ccncc2n1 [Example 220, 4-(2-(2,2-difluoroethyl)-2,8-diazaspiro[4.5]decan-8-yl)-2-(3-methyl-1H-pyrazol-4-yl)pyrido[3,4-d]pyrimidine]	660	–	0.074
FC1(F)CNCC12CCN(c1nc(-c3ccncc3)nc3cnccc13)CC2 [Example 223, 4-(4,4-difluoro-2,8-diazaspiro[4.5]decan-8-yl)-2-(pyridin-4-yl)pyrido[3,4-d]pyrimidine]	> 10000	–	2.7
CS(=O)(=O)NCC1CC2(CCN(c3nc(-c4ccncc4)nc4cnccc34)CC2)CN1 (stereo not shown) [Example 224, N-((8-(2-(pyridin-4-yl)pyrido[3,4-d]pyrimidin-4-yl)-2,8-diazaspiro[4.5]decan-3-yl)methyl)methanesulfonamide]	8900	–	0.16
Brc1cncc2nc(-c3ccncc3)nc(N3CCC4(CCNC4)CC3)c12 [Example 225, 5-Bromo-2-(pyridin-4-yl)-4-(2,8-diazaspiro[4.5]decan-8-yl)pyrido[3,4-d]pyrimidine]	1800	–	2.1
Cc1n[nH]cc1-c1nc(N2CCC3(CCN(C)C3)CC2)c2cc(Cc3ccccc3)ncc2n1 [Example 226, 6-benzyl-2-(3-methyl-1H-pyrazol-4-yl)-4-(2-methyl-2,8-diazaspiro[4.5]decan-8-yl)pyrido[3,4-d]pyrimidine]	130	–	0.016
Cc1n[nH]cc1-c1nc(N2CCC3(CCN(C)C3)CC2)c2cc(Cc3cccnc3)ncc2n1 [Example 227, 2-(3-methyl-1H-pyrazol-4-yl)-4-(2-methyl-2,8-diazaspiro[4.5]decan-8-yl)-6-(pyridin-3-ylmethyl)pyrido[3,4-d]pyrimidine]	2300	–	0.086
Cc1n[nH]cc1-c1nc(N2CCC3(CCNC3)CC2)c2ccnc(Cl)c2n1 [Example 232, 8-chloro-2-(3-methyl-1H-pyrazol-4-yl)-4-(2,8-diazaspiro[4.5]decan-8-yl)pyrido[3,4-d]pyrimidine]	4300	–	0.061
COc1cncc2nc(-c3ccncc3)nc(N3CCC4(CCNC4)CC3)c12 [Example 233, 5-Methoxy-2-(pyridin-4-yl)-4-(2,8-diazaspiro[4.5]decan-8-yl)pyrido[3,4-d]pyrimidine]	260	–	0.028
F[C@@H]1CNCC12CCN(c1nc(-c3ccncc3)nc3cnccc13)CC2 [Example 234, (S)-4-(4-fluoro-2,8-diazaspiro[4.5]decan-8-yl)-2-(pyridin-4-yl)pyrido[3,4-d]pyrimidine]	4200	–	4.5
F[C@H]1CNCC12CCN(c1nc(-c3ccncc3)nc3cnccc13)CC2 [Example 235, (R)-4-(4-fluoro-2,8-diazaspiro[4.5]decan-8-yl)-2-(pyridin-4-yl)pyrido[3,4-d]pyrimidine]	1800	–	1.3
Cc1n[nH]cc1-c1nc(N2CCC3(CCN(C)C3)CC2)c2cc(Cc3ccncc3)ncc2n1 [Example 236, 2-(3-methyl-1H-pyrazol-4-yl)-4-(2-methyl-2,8-diazaspiro[4.5]decan-8-yl)-6-(pyridin-4-ylmethyl)pyrido[3,4-d]pyrimidine]	1200	–	0.49
Cc1n[nH]cc1-c1nc(N2CCC3(CCN(C)C3)CC2)c2cc(Cc3ccccn3)ncc2n1 [Example 238, 2-(3-methyl-1H-pyrazol-4-yl)-4-(2-methyl-2,8-diazaspiro[4.5]decan-8-yl)-6-(pyridin-2-ylmethyl)pyrido[3,4-d]pyrimidine]	2300	–	0.25
OCc1cncc2nc(-c3ccncc3)nc(N3CCC4(CCNC4)CC3)c12 [Example 239, (2-(Pyridin-4-yl)-4-(2,8-diazaspiro[4.5]decan-8-yl)pyrido[3,4-d]pyrimidin-5-yl)methanol]	> 10000	–	4.9
CC(C)c1cncc2nc(-c3ccncc3)nc(N3CCC4(CCNC4)CC3)c12 [Example 240, 5-Isopropyl-2-(pyridin-4-yl)-4-(2,8-diazaspiro[4.5]decan-8-yl)pyrido[3,4-d]pyrimidine]	3200	–	2
